Assay results from patent US20140235587A1, “SUBSTITUTED PYRAZOLES AS SPHINGOSINE RECEPTOR MODULATORS” (Allergan, Inc., priority 2013, published 2014).

Target: T1, human S1P1 receptor (Homo sapiens, UniProt P21453)
T1 construct: expressed in transfected cells; membranes used
Test: GTP γ35S binding assay for S1P1 activity
Assay type: biochemical
Conditions: membranes of cells stably expressing S1P1; test compounds 0.08 to 5,000 nM; 30 min at 25° C.; read-out: S1P1 EC50 (Activity potency: S1P1 receptor from GTP γ35S)
Method: Compounds were tested for S1P1 activity using the GTP γ^35S binding assay. These compounds may be assessed for their ability to activate or block activation of the human S1P1 receptor in cells stably expressing the S1P1 receptor. GTP γ^35S binding was measured in the medium containing (mM) HEPES 25, pH 7.4, MgCl2 10, NaCl 100, dithitothreitol 0.5, digitonin 0.003%, 0.2 nM GTP γ^35S, and 5 μg membrane protein in a volume of 150 μl. Test compounds were included in the concentration range from 0.08 to 5,000 nM unless indicated otherwise. Membranes were incubated with 100 μM 5′-adenylylimmidodiphosphate for 30 min, and subsequently with 10 μM GDP for 10 min on ice. Drug solutions and membrane were mixed, and then reactions were initiated by adding GTP γ^35S and continued for 30 min at 25° C. Reaction mixtures were filtered over Whatman GF/B filters under vacuum, and washed three times with 3 mL of ice-cold buffer (HEPES 25, pH7.4, MgCl2 10 and NaCl 100). Filters were dried and mixed with scintillant, and counted for ^35S activity using a β-counter. Agonist-induced GTP γ^35S binding was obtained by subtracting that in the absence of agonist. Binding data were analyzed using a non-linear regression method. In case of antagonist assay, the reaction mixture contained 10 nM S1P in the presence of test antagonist at concentrations ranging from 0.08 to 5000 nM.

T1 sequence (P21453 whole entry): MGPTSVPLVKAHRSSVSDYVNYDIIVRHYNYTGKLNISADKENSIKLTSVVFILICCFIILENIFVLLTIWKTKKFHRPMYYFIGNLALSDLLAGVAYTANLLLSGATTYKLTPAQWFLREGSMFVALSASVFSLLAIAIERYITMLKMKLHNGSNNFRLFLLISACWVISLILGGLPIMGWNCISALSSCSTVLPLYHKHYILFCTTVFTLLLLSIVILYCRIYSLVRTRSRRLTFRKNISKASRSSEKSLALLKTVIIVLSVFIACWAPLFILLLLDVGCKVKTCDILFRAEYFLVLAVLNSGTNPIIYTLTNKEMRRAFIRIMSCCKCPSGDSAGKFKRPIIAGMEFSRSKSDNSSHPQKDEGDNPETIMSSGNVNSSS

Structure (SMILES) | EC50 [nM]
CCCN1N=C(c2nc(-c3ccc(CNCCCP(=O)(O)O)cc3)no2)CC1c1ccccc1 (centres unmarked) [Compound 1, [3-({4-[5-(5-phenyl-1-propyl-4,5-dihydro-1H-pyrazol-3-yl)-1,2,4-oxadiazol-3-yl]benzyl}amino)propyl]phosphonic acid] | 18
CN1N=C(c2nc(-c3ccc(CNCCCP(=O)(O)O)cc3)no2)CC1c1ccccc1 (centres unmarked) [Compound 2, [3-({4-[5-(1-methyl-5-phenyl-4,5-dihydro-1H-pyrazol-3-yl)-1,2,4-oxadiazol-3-yl]benzyl}amino)propyl]phosphonic acid] | 6.5
CCN1N=C(c2nc(-c3ccc(CNCCCP(=O)(O)O)cc3)no2)CC1c1ccccc1 (centres unmarked) [Compound 4, [3-({4-[5-(1-ethyl-5-phenyl-4,5-dihydro-1H-pyrazol-3-yl)-1,2,4-oxadiazol-3-yl]benzyl}amino)propyl]phosphonic acid] | 25
CCN1N=C(c2nc(-c3ccc(CNCCCP(=O)(O)O)cc3F)no2)CC1c1ccccc1 (centres unmarked) [Compound 8, [3-({4-[5-(1-ethyl-5-phenyl-4,5-dihydro-1H-pyrazol-3-yl)-1,2,4-oxadiazol-3-yl]-3-fluorobenzyl}amino)propyl]phosphonic acid] | 11
CCc1cc(-c2noc(C3=NN(CC)C(c4ccccc4)C3)n2)ccc1CNCCCP(=O)(O)O (centres unmarked) [Compound 10, [3-({2-ethyl-4-[5-(1-ethyl-5-phenyl-4,5-dihydro-1H-pyrazol-3-yl)-1,2,4-oxadiazol-3-yl]benzyl}amino)propyl]phosphonic acid] | 2.6

The remaining lines, values ahead:

EC50 [nM] | Structure (SMILES)
274 | CCN1N=C(c2nc(-c3ccc(CNCCC(=O)O)cc3)no2)CC1c1ccccc1 (centres unmarked) [Compound 5, 3-({4-[5-(1-ethyl-5-phenyl-4,5-dihydro-1H-pyrazol-3-yl)-1,2,4-oxadiazol-3-yl]benzyl}amino)propanoic acid]
5.4 | CCN1N=C(c2nc(-c3cc(F)c(CNCCCP(=O)(O)O)c(F)c3)no2)CC1c1ccccc1 (centres unmarked) [Compound 6, [3-({4-[5-(1-ethyl-5-phenyl-4,5-dihydro-1H-pyrazol-3-yl)-1,2,4-oxadiazol-3-yl]-2,6-difluorobenzyl}amino)propyl]phosphonic acid]
42 | CCN1N=C(c2nc(-c3cc(F)c(CNCCC(=O)O)c(F)c3)no2)CC1c1ccccc1 (centres unmarked) [Compound 7, 3-({4-[5-(1-ethyl-5-phenyl-4,5-dihydro-1H-pyrazol-3-yl)-1,2,4-oxadiazol-3-yl]-2,6-difluorobenzyl}amino)propanoic acid]
49 | CCN1N=C(c2nc(-c3ccc(CNCCC(=O)O)cc3F)no2)CC1c1ccccc1 (centres unmarked) [Compound 9, 3-({4-[5-(1-ethyl-5-phenyl-4,5-dihydro-1H-pyrazol-3-yl)-1,2,4-oxadiazol-3-yl]-3-fluorobenzyl}amino)propanoic acid]
21 | CCc1cc(-c2noc(C3=NN(CC)C(c4ccccc4)C3)n2)ccc1CNCCC(=O)O (centres unmarked) [Compound 11, 3-({2-ethyl-4-[5-(1-ethyl-5-phenyl-4,5-dihydro-1H-pyrazol-3-yl)-1,2,4-oxadiazol-3-yl]benzyl}amino)propanoic acid]
65 | CCCN1N=C(c2nc(-c3ccc(CNCCC(=O)O)cc3)no2)CC1c1ccccc1 (centres unmarked) [Compound 12, 3-({4-[5-(5-phenyl-1-propyl-4,5-dihydro-1H-pyrazol-3-yl)-1,2,4-oxadiazol-3-yl]benzyl}amino)propanoic acid]
